Experimental data taken from US20160082087A1, “WHITENING PROMOTING AGENT OR ATOPIC DERMATITIS AMELIORATING AGENT” (NITTA GELATIN INC., priority 2013, published 2016).
Marks after values point to notes of the source that are not given here. Square brackets hold non-standard residues; d marks the D form. Ends that are not written are not given here. Hyp = O=C(O)[C@@H]1C[C@@H](O)CN1

How the values were obtained:
Assay type in all cases: cell-based, human
[1] = tested on: filaggrin (FLG); test: FLG expression promotion test (real time PCR); conditions: 0.5 mM, 72 hours, NHEK (NB), control 1.00, GAPDH corrected
Experimental: (§1) A normal human epidermal keratinocyte NHEK (NB) (available from KURABO INDUSTRIES LTD.) was used. The cells were precultured in HuMedia-KG2 (available from KURABO INDUSTRIES LTD.), and 1.5×10^4 cells/mL×5 mL (7.5×10^4 cells/dish) were cultured in a 60 mm laboratory dish for two days. After confirming that the cells were subconfluent, the medium was replaced by 5 mL of HuMedia-KB2 (available from KURABO INDUSTRIES LTD.). Samples were added in respective concentrations, and allowed to react for 24 hours (ET-1, K10), 48 hours (TGM1, ivl, HAS2), and 72 hours (FLG). Total RNA was extracted from the cells, reverse transcribed, and subjected to real time PCR. In the real time PCR, as target genes, endoserine-1 (ET-1; Hs00174961_m1), keratin 10 (K10; Hs01043114_g1), transglutaminase 1 (TGM1; Hs01070310_m1), involucrin (ivl; Hs00846307_s1), filaggrin (FLG; Hs00856927_g1) and hyaluronic acid synthase 2 (HAS2; Hs00193435_m1) were measured. GAPDH was used as a correction gene. Calculation was conducted by using a calibration curve method, and FAM pigment of TaqMan Gene Expression was used in primers and probes.
(§2) For each peptide or the like of Examples 1 to 13 and Comparative Examples 1 to 27, RNA expression amounts of endoserine-1 (ET-1), keratin 10 (K10), transglutaminase 1 (TGM1), involucrin (ivl), filaggrin (FLG) and hyaluronic acid synthase 2 (HAS2) were measured. Values in the tables are each average value±standard deviation, and *, ** and *** denote that they are significant with P<0.05, P<0.01, and P<0.001, respectively with respect to the control in Paired-t-test.

[2] = tested on: hyaluronic acid synthase 2 (HAS2); test: HAS2 expression promotion test (real time PCR); conditions: 0.5 mM, 48 hours, NHEK (NB), control 1.00, GAPDH corrected
Experimental: as §1, §2

[3] = tested on: transglutaminase 1 (TGM1); test: TGM1 expression promotion test (real time PCR); conditions: 0.5 mM, 48 hours, NHEK (NB), control 1.00, GAPDH corrected
Experimental: as §1, §2

[4] = tested on: involucrin (ivl); test: ivl expression promotion test (real time PCR); conditions: 0.5 mM, 48 hours, NHEK (NB), control 1.00, GAPDH corrected
Experimental: as §1, §2

[5] = tested on: keratin 10 (K10); test: K10 expression promotion test (real time PCR); conditions: 0.5 mM, 24 hours, NHEK (NB), control 1.00, GAPDH corrected
Experimental: as §1, §2

[6] = tested on: endoserine-1 (ET-1); test: ET-1 expression suppression test (real time PCR); conditions: 0.5 mM, 24 hours, NHEK (NB), control 1.00, GAPDH corrected
Experimental: as §1, §2

Compound | Transglutaminase 1 RNA expression amount [3] | Filaggrin RNA expression amount [1] | Hyaluronic acid synthase 2 RNA expression amount [2] | Involucrin RNA expression amount [4] | Keratin 10 RNA expression amount [5] | Endoserine-I RNA expression amount [6]
Leu-Hyp [Comparative Example 3] | 0.58 ± 0.01*** | 0.69 ± 0.58 | 0.87 ± 0.63 | 0.89 ± 0.09* | 1.04 ± 0.06 | 1.08 ± 0.00
C[C@H](N)C(=O)O [Comparative Example 12, L-alanine] | 0.95 ± 0.04 | 0.69 ± 0.02** | 0.89 ± 0.57 | 0.64 ± 0.15** | 0.82 ± 0.02* | 1.58 ± 0.05**
Pro-Gly [Comparative Example 4] | 0.64 ± 0.01*** | 0.86 ± 0.18 | 0.54 ± 0.98* | 0.72 ± 0.02* | 0.89 ± 0.01* | 1.06 ± 0.10**
(Pro-Hyp-Gly)5 [Example 1] | 13.50 ± 2.69** | 11.23 ± 1.56*** | 3.45 ± 1.02** | 7.96 ± 0.60** | 6.40 ± 0.06 | 0.32 ± 0.00*
N[C@@H](CCC(=O)O)C(=O)O [Comparative Example 11, L-glutamic acid] | 0.40 ± 0.01** | 0.77 ± 0.04* | 1.06 ± 0.24 | 0.85 ± 0.11 | 0.65 ± 0.01** | 1.00 ± 0.02**
Ala-Hyp [Comparative Example 2] | 0.48 ± 0.02*** | 0.98 ± 0.95 | 0.99 ± 0.66 | 1.01 ± 0.00 | 1.00 ± 0.06 | 1.23 ± 0.03*
CC(C)C[C@H](N)C(=O)O [Comparative Example 10, L-leucine] | 0.63 ± 0.07* | 0.89 ± 0.08 | 0.76 ± 0.07* | 0.84 ± 0.03 | 0.62 ± 0.01** | 1.58 ± 0.05**
Gly-Pro [Example 3] | 2.15 ± 0.02** | 7.21 ± 0.95*** | 3.08 ± 0.99** | 2.18 ± 0.00*** | 2.56 ± 0.22*** | 0.36 ± 0.12**
Pro-Pro [Comparative Example 5] | 0.64 ± 0.01*** | 0.66 ± 0.09** | 0.78 ± 0.64* | 0.56 ± 0.04* | 0.98 ± 0.16 | 1.65 ± 0.07*
NCC(=O)O [Comparative Example 9, L-glycine] | 0.75 ± 0.01** | 0.87 ± 0.05 | 0.61 ± 0.40** | 0.71 ± 0.03** | 0.81 ± 0.05 | 1.01 ± 0.05**
Pro-Ala [Comparative Example 6] | 0.94 ± 0.13 | 0.63 ± 0.08** | 0.99 ± 0.68 | 0.81 ± 0.06** | 0.70 ± 0.04 | 1.09 ± 0.01**
O=C(O)[C@@H]1CCCN1 [Comparative Example 7, L-proline] | 1.02 ± 0.13 | 0.85 ± 0.18 | 0.84 ± 0.47 | 0.78 ± 0.01** | 0.73 ± 0.03** | 1.89 ± 0.06**
Glu-Hyp [Example 6] | 2.12 ± 0.01*** | 3.26 ± 1.61** | 2.35 ± 0.85** | 1.95 ± 0.08** | 3.48 ± 0.05*** | 0.65 ± 0.02
O=C(O)[C@@H]1C[C@@H](O)CN1 [Comparative Example 8, L-hydroxyproline] | 0.94 ± 0.10 | 0.89 ± 0.09 | 0.70 ± 0.29 | 0.94 ± 0.04 | 0.64 ± 0.02** | 1.52 ± 0.02***
N[C@@H](Cc1ccccc1)C(=O)O [Comparative Example 14, L-phenylalanine] | 0.72 ± 0.05** | 0.59 ± 0.05** | 0.89 ± 0.84 | 0.87 ± 0.04 | 0.78 ± 0.07 | 1.05 ± 0.05
N[C@@H](CO)C(=O)O [Comparative Example 13, L-serine] | 0.85 ± 0.02 | 0.85 ± 0.08 | 0.81 ± 0.50 | 0.98 ± 0.05 | 0.69 ± 0.03** | 1.64 ± 0.07**

Second part, led by results:

Transglutaminase 1 RNA expression amount [3] | Compound | Filaggrin RNA expression amount [1] | Hyaluronic acid synthase 2 RNA expression amount [2] | Involucrin RNA expression amount [4] | Keratin 10 RNA expression amount [5] | Endoserine-I RNA expression amount [6]
2.00 ± 0.02*** | Ala-[Hyp]-Gly [Example 7] | 3.09 ± 0.23** | 2.21 ± 0.67** | 1.36 ± 0.07* | 5.06 ± 0.37*** | 0.52 ± 0.01
0.98 ± 0.05 | Gly-Pro-[Hyp] [Comparative Example 1] | 1.08 ± 0.21 | 0.98 ± 0.45 | 0.95 ± 0.08 | 0.94 ± 0.10 | 1.05 ± 0.11
1.46 ± 0.02* | Phe-Hyp [Example 11] | 1.95 ± 0.19* | 1.63 ± 0.49* | 1.85 ± 0.00*** | 2.22 ± 0.01*** | 0.97 ± 0.16
5.36 ± 0.01*** | Pro-[Hyp]-Gly [Example 5] | 5.32 ± 0.69*** | 2.45 ± 0.90** | 1.75 ± 0.22* | 3.81 ± 0.17*** | 0.53 ± 0.00
1.69 ± 0.01*** | Glu-[Hyp]-Gly [Example 8] | 2.92 ± 0.89** | 2.56 ± 0.45** | 1.89 ± 0.03* | 2.39 ± 0.02* | 0.71 ± 0.03
1.21 ± 0.01 | Ser-[Hyp]-Gly [Example 10] | 2.29 ± 0.26** | 2.14 ± 0.89* | 1.59 ± 0.05* | 1.77 ± 0.04** | 0.89 ± 0.07*
1.99 ± 0.06* | Hyp-Gly [Example 9] | 2.98 ± 0.58** | 2.18 ± 0.67** | 2.04 ± 0.02* | 1.99 ± 0.13* | 0.55 ± 0.09**
3.11 ± 0.02*** | Pro-Ala-Gly [Example 4] | 5.33 ± 1.25*** | 2.99 ± 1.03** | 2.75 ± 0.03*** | 3.98 ± 0.23*** | 0.67 ± 0.01**
